Assay results taken from patent publication US20110160250A1, “CRYSTALLINE FORMS OF A FACTOR XA INHIBITOR” (Millennium Pharmaceuticals, Inc., priority 2009, published 2011).
Where two headings read alike, the source gives them in different places.

Experiments:
[1] = Pharmacokinetics of Compound I in monkey after intravenous and oral administration (plasma LC/MS/MS, noncompartmental analysis); type: in vivo, male rhesus monkeys; conditions: mean ± SD; for Vd: iv
Protocol: (§1) The following experiments were conducted using samples of Compound I prepared by a method disclosed in U.S. Pat. No. 7,763,608, which is incorporated by reference in its entirety.
(§2) For the dog and monkey study, Compound I was also used. An IV and PO dose of Compound I (1.0 and 5.0 mg/kg, respectively) was prepared. The IV dose was formulated similarly to that used in the rat study (50% PEG300 in water). The PO dose was suspended in 0.5% methylcellulose at a concentration of 1.0 mg/mL with a final pH of approximately 3.50.
(§3) A total of six male Sprague-Dawley rats (n=3/dosing group) from Charles River Laboratories (Hollister, Calif.), three male beagle dogs from Marshall BioResources (North Rose, N.Y.) and three male rhesus monkeys were utilized. All surgical procedures in rat (femoral and jugular vein catheterizations) were performed 8 days prior to utilization in the study and rats were acclimated in-house 5 days prior to utilization. Dogs were acclimated in-house at least seven days prior to utilization and were returned to the colony at the completion of the study. Monkey studies were conducted by an off-site contract laboratory.
(§4) All animals were fasted from the afternoon prior to study initiation to two hours post-dose (approximately 18 hours). Water was provided ad libitum. All animal rooms were on a 12 hour light-dark cycles (6 A.M. to 6 P.M.). On the morning of experimentation, animals were weighed. Rat femoral and jugular (IV only) vein blood lines were exteriorized and attached to access ports. Dogs were weighed and shaved at blood sampling and IV dosing sites (along both cephalic and saphenous veins).
(§5) All animals were dosed based on individual weights with a PO gavage volume of 5.0 mL/kg and an IV bolus dose volume of 1.0 mL/kg. Blood samples were obtained on 3.8% TSC (1:10 dilution) over a 24, 56, and 96 hour period post-dosing for the rat, dog, and monkey, respectively. Blood samples were centrifuged for platelet poor plasma, and resulting plasma was stored at −20° C. until sample analysis. Rat urine samples were collected on 200 μL of 2% boric acid from animals in the IV group at 0 (overnight), 10, and 24 hours post-dose. At collection times, urine volume and water consumption was recorded. Urine samples were stored at −20° C. until sample analysis.
(§6) Plasma and urine samples were analyzed for Compound I concentration using a liquid chromatography tandem mass spectrometry (LC/MS/MS). In brief, plasma and urine samples were processed in a 96-well Captiva™ filter plate (0.2 μm, Varian, Inc., Palo Alto, Calif.). Aliquots of plasma samples were precipitated with acetonitrile containing 500 ng/mL of N-(2-(5-chloropyridin-2-ylcarbaomoyl)-4-methoxyphenyl)-4-(N,N-dimethylcarbamimidoyl)-2-fluorobenzamide, an internal standard. Aliquots of urine samples were diluted with plasma before mixing with acetonitrile containing internal standard. The mixture was vortexed and refrigerated at 4° C. for 30 minutes to allow complete protein precipitation. The mixture was filtered into a 96-well collection plate. The filtrate was injected onto a Sciex API3000 LC/MS/MS equipped with a turbo-ion spray source. Compound I and N-(2-(5-chloropyridin-2-ylcarbaomoyl)-4-methoxyphenyl)-4-(N,N-dimethylcarbamimidoyl)-2-fluorobenzamide were separated on a Thermo Hypersil-Keystone Betasil C18 column (4.6×100 mm, 5 μm; Fisher Scientific, Houston, Tex.). A mobile phase gradient mixture of 90% mobile phase A (0.5% formic acid in water) and 10% mobile phase B (0.5% formic acid in 90% acetonitrile) to 40% mobile phase B (programmed over 2.8 minutes). The peak areas of the m/z 411→250 product ion (Compound I) were measured against those of the m/z 470→342 product ion (N-(2-(5-chloropyridin-2-ylcarbaomoyl)-4-methoxyphenyl)-4-(N,N-dimethylcarbamimidoyl)-2-fluorobenzamide) in positive ion mode. The analytical range was 0.500 to 10,000 ng/mL.
(§7) Sample Compound I concentrations below the lower limit of quantitation (LLQ) were reported as <0.500 ng/mL. […]

[2] = Pharmacokinetics of Compound I in dog after intravenous and oral administration (plasma LC/MS/MS, noncompartmental analysis); type: in vivo, male beagle dogs; conditions: mean ± SD; for Vd: iv
Protocol: as §1, §2, §3, §4, §5, §6, §7

[3] = Pharmacokinetics of Compound I in rat after intravenous and oral administration (plasma and urine LC/MS/MS, noncompartmental analysis); type: in vivo, male Sprague-Dawley rats; conditions: mean ± SD; for half-life: read-out: T1/2 (terminal half-life) (converted); for Vd: iv
Protocol: as §1
Compound I was used in the rat investigation. An intravenous (IV) and oral (PO) dose of Compound I (1.0 and 10 mg/kg, respectively) was prepared. The IV dose was solubilized in 50% PEG300 to yield a final concentration of 1.0 mg/mL with a final pH of 5.13. The PO dose was suspended in 0.5% methylcellulose at a concentration of 2.0 mg/mL with a final pH of 2.70.
as §3, §4, §5, §6, §7

[4] = male, rhesus, rhesus monkey, plasma, intravenous, 1 mg/kg
[5] = male, rhesus, rhesus monkey, plasma, oral, 5 mg/kg
[6] = male, beagle, plasma, intravenous, 1 mg/kg
[7] = male, beagle, plasma, oral, 5 mg/kg
[8] = male, Sprague-Dawley, plasma, intravenous, 1 mg/kg
[9] = male, Sprague-Dawley, plasma, oral, 10 mg/kg

AUC [1, 4]: 12.6 ± 6 µg·h/mL
AUC(0-inf) [1, 4]: 12.6 ± 6 µg·h/mL
clearance ([1]; male, rhesus, rhesus monkey, plasma, intravenous, 1 mg/kg, read-out: CL (systemic clearance)): 0.0996 ± 0.0636 L/h/kg
Vd ([1]; male, rhesus, rhesus monkey, plasma, 1 mg/kg, intravenous, 1 mg/kg, read-out: Vss (volume of distribution at steady-state)): 0.353 ± 0.059 L/kg
Vd ([1]; male, rhesus, rhesus monkey, plasma, 1 mg/kg, intravenous, 1 mg/kg, read-out: Vz (volume of distribution)): 2.31 ± 1.71 L/kg
AUC [1, 5]: 42.1 ± 17.2 µg·h/mL
AUC(0-inf) [1, 5]: 42.1 ± 17.2 µg·h/mL
Cmax [1, 5]: 6.04 ± 1.88 µg/mL
Tmax [1, 5]: 2 h
AUC/D (dose-normalized AUC(0-inf)) ([1]; oral, 5 mg/kg): 8430 ± 3449 kg·h/mL
AUC [2, 6]: 1.61 ± 0.36 µg·h/mL
AUC(0-inf) [2, 6]: 1.62 ± 0.363 µg·h/mL
clearance ([2]; male, beagle, plasma, intravenous, 1 mg/kg, read-out: CL (systemic clearance)): 0.642 ± 0.161 L/h/kg
Vd ([2]; male, beagle, plasma, 1 mg/kg, intravenous, 1 mg/kg, read-out: Vss (volume of distribution at steady-state)): 0.843 ± 0.288 L/kg
Vd ([2]; male, beagle, plasma, 1 mg/kg, intravenous, 1 mg/kg, read-out: Vz (volume of distribution)): 2.73 ± 2.45 L/kg
AUC [2, 7]: 5.46 ± 1.47 µg·h/mL
AUC(0-inf) [2, 7]: 5.48 ± 1.48 µg·h/mL
Cmax [2, 7]: 2.72 ± 0.474 µg/mL
Tmax [2, 7]: 0.583 ± 0.382 h
AUC/D (dose-normalized AUC(0-inf)) ([2]; oral, 5 mg/kg): 1095 ± 295 kg·h/mL
Dose excreted unchanged in urine ([3]; intravenous, 1 mg/kg): 0.248 ± 0.019%
AUC [3, 8]: 5.38 ± 1.19 µg·h/mL
AUC(0-inf) [3, 8]: 5.4 ± 1.16 µg·h/mL
clearance ([3]; male, Sprague-Dawley, plasma, intravenous, 1 mg/kg, read-out: CL (systemic clearance)): 0.191 ± 0.044 L/h/kg
half-life [3, 8]: 2.86 ± 1.4 h
Vd ([3]; male, Sprague-Dawley, plasma, 1 mg/kg, intravenous, 1 mg/kg, read-out: Vss (volume of distribution at steady-state)): 0.368 ± 0.026 L/kg
Vd ([3]; male, Sprague-Dawley, plasma, 1 mg/kg, intravenous, 1 mg/kg, read-out: Vz (volume of distribution)): 0.757 ± 0.328 L/kg
AUC [3, 9]: 68.5 ± 12.5 µg·h/mL
AUC(0-inf) [3, 9]: 68.6 ± 12.5 µg·h/mL
Cmax [3, 9]: 28.9 ± 2.08 µg/mL
Tmax [3, 9]: 0.25 h
half-life [3, 9]: 2.72 ± 0.29 h
AUC/D (dose-normalized AUC(0-inf)) ([3]; oral, 10 mg/kg): 6859 ± 1249 kg·h/mL
SMILES: O=C(NCc1cn(-c2ccc(-n3ccccc3=O)cc2)cn1)c1ccc(Cl)s1 [Compound I, 5-chloro-N-((1-(4-(2-oxopyridin-1(2H)-yl)phenyl)-1H-imidazol-4-yl)methyl)thiophene-2-carboxamide]
